Experimental data taken from patent US20210246157A1, “CAMPTOTHECIN DERIVATIVES AND PREPARATION METHODS AND APPLICATIONS THEREOF” (priority 2018, published 2021).
In brackets after ≈: the same amount, converted by molar mass.

Columns and labels:
[1] = Solubility test, equilibrium method, UV-visible spectrophotometry; assay type: physicochemical; details: thermodynamic from solid
Procedure, shortened: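 Equilibrium solubility measured by UV-visible spectrophotometry. Reference solution of known concentration (C0) prepared in methanol; test concentration calculated as Cx=(Ax/A0)C0 from absorbance ratio of test to reference solution.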

[2] = test system: HepG2; experiment: Cytotoxicity test (MTT, 72 h); details: Homo sapiens, HepG2, 72 h, read-out: 50% Inhibiting Concentration value (IC50)
Method: (§2) In order to investigate the antitumor activities of the compounds, a variety of tumor cell lines for test are selected. Cells at logarithmic growth period are inoculated in a 96-well plate overnight, then drugs with a certain gradient concentrations are added, and incubation is carried out in a cell culture chamber (5% CO2, 37° C.) for 72 h.

[3] = test system: tumor; experiment: Multi-dose in vivo antitumor activity, tumor volume (Example 20); design: species or system mice; details: for Mouse Tumor Volume: caudal vein once every 2 days
Method: (§1) The drugs are administered through the caudal veins of mice once every 2 days for a total of 7 times.
Tumor volume is measured every three days from day 0. The maximum diameter (a) of the tumor is measured first, and then the longest radial line (b) perpendicular to the maximum diameter is measured, using mm as unit. Tumor volume is calculated according to the following formula: […]

[4] = test system: K562; experiment: Cytotoxicity test (MTT, 72 h); details: Homo sapiens, K562, 72 h, read-out: 50% Inhibiting Concentration value (IC50)
Method: as §2

[5] = Multi-dose in vivo antitumor activity study, mouse weight (Example 20); design: species or system mice; details: caudal vein once every 2 days
Method: as §1
At the end of the treatment cycle, the orbital venous blood of the mice is collected for later blood routine test, the mice are killed by cervical dislocation method, and tumors are removed immediately and photographed. From day 0, the mice in each group are weighed every three days, and the weights are recorded. The weight average value of each group is calculated, and mouse weight variation curve is drawn according to statistical data. At the end of the treatment cycle, tumors are removed from anesthetized mice immediately and weighted, and the tumor weight of each group is recorded. The tumor inhibition rate (%) is calculated according to the following formula: […]

[6] = test system: TPC-1; experiment: Cytotoxicity test (MTT, 72 h); details: Homo sapiens, TPC1, 72 h, read-out: 50% Inhibiting Concentration value (IC50)
Method: (§3) Cells at logarithmic growth period are inoculated in a 96-well plate overnight, then drugs with a certain gradient concentrations are added, and incubation is carried out in a cell culture chamber (5% CO2, 37° C.) for 72 h.

[7] = test system: PC3; experiment: Cytotoxicity test (MTT, 72 h); details: Homo sapiens, PC-3, 72 h, read-out: 50% Inhibiting Concentration value (IC50)
Method: as §2

[8] = test system: H1975; experiment: Cytotoxicity test (MTT, 72 h); details: Homo sapiens, NCI-H1975, 72 h, read-out: 50% Inhibiting Concentration value (IC50)
Method: as §2

[9] = test system: Hela; experiment: Cytotoxicity test (MTT, 72 h); details: Homo sapiens, read-out: 50% Inhibiting Concentration value (IC50)
Method: as §2

[10] = test system: MDA-MB-231; experiment: Cytotoxicity test (MTT, 72 h); details: Homo sapiens, MDA-MB-231, 72 h, read-out: 50% Inhibiting Concentration value (IC50)
Method: as §2

[11] = test system: ECA-109; experiment: Cytotoxicity test (MTT, 72 h); details: Homo sapiens, ECa-109, 72 h, read-out: 50% Inhibiting Concentration value (IC50)
Method: as §2

[12] = test system: A549; experiment: Cytotoxicity test (MTT, 72 h); details: Homo sapiens, A549, 72 h, read-out: 50% Inhibiting Concentration value (IC50)
Method: as §2

[13] = test system: SW-480; experiment: Cytotoxicity test (MTT, 72 h); details: Homo sapiens, SW480, 72 h, read-out: 50% Inhibiting Concentration value (IC50)
Method: as §3

[14] = test system: colon cancer cells SW-480; experiment: In vivo antitumor activity, tumor volume (Example 19); design: species or system mice; details: for Mouse Tumor Volume: 13.73 mg/kg i.v. once every three days, average, n = 6
[15] = test system: SKOV-3; experiment: Cytotoxicity test (MTT, 72 h); details: Homo sapiens, SK-OV-3, 72 h, read-out: 50% Inhibiting Concentration value (IC50)
Method: as §3

[16] = test system: 143B; experiment: Cytotoxicity test (MTT, 72 h); details: Homo sapiens, read-out: 50% Inhibiting Concentration value (IC50)
Method: as §2

[17] = day 0, high-dose group (H) 13.73 mg/kg
[18] = day 0, low-dose group (L) 3.433 mg/kg
[19] = day 0, medium-dose group (M) 6.865 mg/kg
[20] = day 3, high-dose group (H) 13.73 mg/kg
[21] = day 3, low-dose group (L) 3.433 mg/kg
[22] = day 3, medium-dose group (M) 6.865 mg/kg
[23] = day 6, high-dose group (H) 13.73 mg/kg
[24] = day 6, low-dose group (L) 3.433 mg/kg
[25] = day 6, medium-dose group (M) 6.865 mg/kg
[26] = day 9, high-dose group (H) 13.73 mg/kg
[27] = day 9, low-dose group (L) 3.433 mg/kg
[28] = day 9, medium-dose group (M) 6.865 mg/kg
[29] = day 12, high-dose group (H) 13.73 mg/kg
[30] = day 12, low-dose group (L) 3.433 mg/kg
[31] = day 12, medium-dose group (M) 6.865 mg/kg
[32] = day 15, high-dose group (H) 13.73 mg/kg
[33] = day 15, low-dose group (L) 3.433 mg/kg
[34] = day 15, medium-dose group (M) 6.865 mg/kg
[35] = day 18, high-dose group (H) 13.73 mg/kg
[36] = day 18, low-dose group (L) 3.433 mg/kg
[37] = day 18, medium-dose group (M) 6.865 mg/kg
[38] = day 21, high-dose group (H) 13.73 mg/kg
[39] = day 21, low-dose group (L) 3.433 mg/kg
[40] = day 21, medium-dose group (M) 6.865 mg/kg

SMILES: CCc1c2c(nc3ccc(OC(=O)OCCOCCOCCOCc4cn(CCO[C@H]5O[C@@H](CO)[C@H](O)[C@@H](O)[C@@H]5O)nn4)cc13)-c1cc3c(c(=O)n1C2)COC(=O)[C@]3(O)CC [Compound 58]
- solubility ([1]; aqueous with cosolvent or surfactant or cyclodextrin): 5330 µg/mL (≈ 6.23 mM)
- solubility ([1]; pH 7.4, aqueous buffer): 1580 µg/mL (≈ 1.84 mM)
- solubility ([1]; saline or isotonic): 3590 µg/mL (≈ 4.2 mM)
- solubility ([1]; water): 2550 µg/mL (≈ 2.98 mM)
- IC50 [2]: 625 nM
- Mouse Tumor Volume [3, 17]: 120.63 mm^3
- Mouse Tumor Volume [3, 18]: 110.67 mm^3
- Mouse Tumor Volume [3, 19]: 113.01 mm^3
- Mouse Tumor Volume [3, 20]: 151.62 mm^3
- Mouse Tumor Volume [3, 21]: 164.30 mm^3
- Mouse Tumor Volume [3, 22]: 106.18 mm^3
- Mouse Tumor Volume [3, 23]: 206.78 mm^3
- Mouse Tumor Volume [3, 24]: 235.34 mm^3
- Mouse Tumor Volume [3, 25]: 122.56 mm^3
- Mouse Tumor Volume [3, 26]: 254.08 mm^3
- Mouse Tumor Volume [3, 27]: 252.37 mm^3
- Mouse Tumor Volume [3, 28]: 151.19 mm^3
- Mouse Tumor Volume [3, 29]: 317.44 mm^3
- Mouse Tumor Volume [3, 30]: 316.07 mm^3
- Mouse Tumor Volume [3, 31]: 141.38 mm^3
- Mouse Tumor Volume [3, 32]: 430.78 mm^3
- Mouse Tumor Volume [3, 33]: 375.47 mm^3
- Mouse Tumor Volume [3, 34]: 141.13 mm^3
- Mouse Tumor Volume [3, 35]: 519.79 mm^3
- Mouse Tumor Volume [3, 36]: 401.94 mm^3
- Mouse Tumor Volume [3, 37]: 134.18 mm^3
- Mouse Tumor Volume [3, 38]: 555.67 mm^3
- Mouse Tumor Volume [3, 39]: 433.61 mm^3
- Mouse Tumor Volume [3, 40]: 142.06 mm^3
- increase of tumor volume compared with other groups (in words) ([3]; high-dose group, after last administration): slowest increase
- tumor inhibition effects of the high-dose groups compared with CPT-11 (in words) ([3]; high-dose groups, same dosage (10 mg/kg), p<0.001): better than that of positive control group CPT-11
- dose dependence of tumor inhibition (in words) ([3]; low, medium and high dose): dose-dependent
- IC50 [4]: 1660 nM
- Mouse Weight [5, 17]: 16.69 g
- Mouse Weight [5, 18]: 17.94 g
- Mouse Weight [5, 19]: 16.55 g
- Mouse Weight [5, 20]: 17.60 g
- Mouse Weight [5, 21]: 16.34 g
- Mouse Weight [5, 22]: 16.61 g
- Mouse Weight [5, 23]: 16.26 g
- Mouse Weight [5, 24]: 16.36 g
- Mouse Weight [5, 25]: 15.81 g
- Mouse Weight [5, 26]: 17.28 g
- Mouse Weight [5, 27]: 17.00 g
- Mouse Weight [5, 28]: 17.23 g
- Mouse Weight [5, 29]: 16.88 g
- Mouse Weight [5, 30]: 16.96 g
- Mouse Weight [5, 31]: 16.17 g
- Mouse Weight [5, 32]: 16.61 g
- Mouse Weight [5, 33]: 16.41 g
- Mouse Weight [5, 34]: 15.46 g
- Mouse Weight [5, 35]: 16.06 g
- Mouse Weight [5, 36]: 17.28 g
- Mouse Weight [5, 37]: 16.47 g
- Mouse Weight [5, 38]: 16.50 g
- Mouse Weight [5, 39]: 16.97 g
- Mouse Weight [5, 40]: 16.65 g
- IC50 [6]: 11200 nM
- IC50 [7]: 2530 nM
- IC50 [8]: 9340 nM
- IC50 [9]: 3650 nM
- IC50 [10]: 521 nM
- IC50 [11]: 4380 nM
- IC50 [12]: 3040 nM
- IC50 [13]: 254 nM
- Mouse Tumor Volume ([14]; day 0): 235.22 mm^3
- Mouse Tumor Volume ([14]; day 3): 202.08 mm^3
- Mouse Tumor Volume ([14]; day 6): 98.87 mm^3
- Mouse Tumor Volume ([14]; day 9): 118.41 mm^3
- Mouse Tumor Volume ([14]; day 12): 80.63 mm^3
- Mouse Tumor Volume ([14]; day 15): 38.37 mm^3
- Mouse Tumor Volume ([14]; day 18): 40.03 mm^3
- Mouse Tumor Volume ([14]; day 21): 7.16 mm^3
- inhibition rates on colon cancer cell SW-480 compared with CPT-11 (in words) ([14]; dosage two-thirds of the molar fraction of CPT-11): significantly higher inhibition rates
- IC50 [15]: 750 nM
- IC50 [16]: 7790 nM
